Reference: patent US20230072683A1, “PYRIDO-PYRIMIDIN DERIVATIVES AND PHARMACEUTICAL COMPOSITION, FOR USE IN PREVENTING OR TREATING PI3 KINASE RELATED DISEASES, COMPRISING SAME AS ACTIVE INGREDIENT” (BORYUNG PHARMACEUTICAL CO., LTD, priority 2019, published 2023)
Read-outs that look alike come from different tables or passages of the source.

Experiments:
DNA-PK(h) = DNA-PK(h) (Homo sapiens, UniProt P78527); test: Evaluation of inhibitory activity against DNA-PK (HTRF kinase assay, GST-cMyc-p53 substrate); type: biochemical; conditions: for inhibition at 0.01 µM: compound concentration 0.01 μM, read-out: EXP_VALUE(% Inhibition) DNA-PK(h) 0.01 μM; for inhibition at 0.1 µM: read-out: EXP_VALUE(% Inhibition) DNA-PK(h) 0.1 μM
Procedure: <Experimental Example 2> Evaluation of Inhibitory Activity Properties Against DNA-PK
The following experiments were performed to verify the inhibitory activity against DNA-PK with regard to each of the compounds of Examples 1 to 441 according to the present invention.
DNA-PK(h) was subjected to an isothermal treatment in an assay buffer comprising […] GST-cMyc-p53 and Mg/ATP (at a concentration as required). The reaction was initiated by the addition of a Mg/ATP mixture, and after incubation for 30 minutes at room temperature, a stop solution comprising EDTA was added to stop the reaction. A detection buffer comprising d2-labelled anti-GST monoclonal antibody and Europium-labelled anti-phospho Ser15 antibody for phosphorylated p53 was added. A plate was read in a time-resolved fluorescence mode and a homogeneous time-resolved fluorescence (HTRF) signal was determined according to HTRF=10000×(Em 665 nm/Em 620 nm).

[1] = biological target: PI3K-δ (PI3K(p1108/p857) (h)) (Homo sapiens, UniProt O00329); test: Evaluation of inhibitory activity against PI3K-δ (HTRF kinase assay); type: biochemical; conditions: for inhibition at 0.01 µM: compound concentration 0.01 μM, read-out: EXP_VALUE(% Inhibition) PI3K-δ 0.01 μM; for inhibition at 0.1 µM: read-out: EXP_VALUE(% Inhibition) PI3K-δ 0.1 μM
Procedure: <Experimental Example 1> Evaluation of Inhibitory Activity Properties Against PI3K-δ
The following experiments were performed to verify the inhibitory activity against PI3K-δ with regard to each of the compounds of Examples 1 to 441 according to the present invention.
PI3K(p1108/p857) (h) was incubated in assay buffer comprising 10 μM phosphatidylinositol-4,5-bisphosphate and Mg/ATP (at a concentration as required). The reaction was initiated by the addition of a Mg/ATP mixture, and after incubation for 30 minutes at room temperature, a stop solution comprising EDTA and phosphatidylinositol-3,4,5-triphosphate was added to stop the reaction and carry out biotinylation.
A detection buffer comprising Eu (europium)-labelled anti-GST monoclonal antibody, GST-tagged GRP1 PH domain and streptavidin-allophycocyanin was added. A plate was read in a time-resolved fluorescence mode and a homogeneous time-resolved fluorescence (HTRF) signal was determined according to HTRF=10000×(Em 665 nm/Em 620 nm).

Sequence of PI3K-δ (PI3K(p1108/p857) (h)) (O00329 whole entry): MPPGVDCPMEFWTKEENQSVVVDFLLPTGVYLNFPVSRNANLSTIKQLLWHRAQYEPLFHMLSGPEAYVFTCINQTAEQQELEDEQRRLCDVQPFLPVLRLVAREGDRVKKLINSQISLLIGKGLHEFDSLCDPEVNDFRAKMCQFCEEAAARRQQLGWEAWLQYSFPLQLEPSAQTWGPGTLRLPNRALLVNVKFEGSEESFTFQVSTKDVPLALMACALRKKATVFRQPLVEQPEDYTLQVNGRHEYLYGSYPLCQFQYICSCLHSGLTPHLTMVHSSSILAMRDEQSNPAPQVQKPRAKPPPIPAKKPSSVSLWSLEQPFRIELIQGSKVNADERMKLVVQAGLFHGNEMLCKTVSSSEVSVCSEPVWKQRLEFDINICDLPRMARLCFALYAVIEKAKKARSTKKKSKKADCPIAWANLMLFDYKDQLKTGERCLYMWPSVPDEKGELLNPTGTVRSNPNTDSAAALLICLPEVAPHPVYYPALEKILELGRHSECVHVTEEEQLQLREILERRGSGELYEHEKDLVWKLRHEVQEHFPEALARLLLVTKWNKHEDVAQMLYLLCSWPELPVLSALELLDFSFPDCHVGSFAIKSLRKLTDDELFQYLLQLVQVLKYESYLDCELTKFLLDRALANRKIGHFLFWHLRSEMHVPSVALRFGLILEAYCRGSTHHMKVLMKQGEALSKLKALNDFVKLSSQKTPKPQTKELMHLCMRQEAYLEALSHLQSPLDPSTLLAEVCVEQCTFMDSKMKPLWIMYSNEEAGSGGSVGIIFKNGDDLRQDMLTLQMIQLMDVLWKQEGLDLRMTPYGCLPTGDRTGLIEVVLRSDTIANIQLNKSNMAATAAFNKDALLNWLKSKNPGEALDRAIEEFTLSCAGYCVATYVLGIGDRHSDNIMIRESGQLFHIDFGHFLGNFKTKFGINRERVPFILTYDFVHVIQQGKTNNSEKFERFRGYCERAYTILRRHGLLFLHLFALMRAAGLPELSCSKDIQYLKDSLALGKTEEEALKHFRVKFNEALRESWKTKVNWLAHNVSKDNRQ
Sequence of PI3K-δ (PI3K(p1108/p857) (h)) (P27986 whole entry partner): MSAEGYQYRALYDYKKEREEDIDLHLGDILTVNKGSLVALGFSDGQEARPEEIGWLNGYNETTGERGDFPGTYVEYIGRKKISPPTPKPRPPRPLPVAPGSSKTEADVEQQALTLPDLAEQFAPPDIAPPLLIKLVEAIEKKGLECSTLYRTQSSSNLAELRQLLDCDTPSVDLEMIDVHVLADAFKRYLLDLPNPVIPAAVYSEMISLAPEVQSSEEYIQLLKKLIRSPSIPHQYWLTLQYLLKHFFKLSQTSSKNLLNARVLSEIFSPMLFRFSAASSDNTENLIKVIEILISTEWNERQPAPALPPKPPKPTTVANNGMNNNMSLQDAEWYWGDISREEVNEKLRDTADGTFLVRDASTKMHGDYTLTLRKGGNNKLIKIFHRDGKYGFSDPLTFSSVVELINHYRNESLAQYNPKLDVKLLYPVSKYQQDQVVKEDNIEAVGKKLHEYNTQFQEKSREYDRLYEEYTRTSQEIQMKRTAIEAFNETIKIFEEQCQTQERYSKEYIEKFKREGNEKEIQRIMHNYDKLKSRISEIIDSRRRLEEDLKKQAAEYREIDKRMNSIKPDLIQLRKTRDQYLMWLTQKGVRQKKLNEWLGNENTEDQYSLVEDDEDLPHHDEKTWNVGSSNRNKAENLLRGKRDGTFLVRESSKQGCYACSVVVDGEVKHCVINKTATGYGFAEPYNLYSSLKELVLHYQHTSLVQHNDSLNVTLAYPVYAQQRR

| inhibition at 0.01 µM (DNA-PK(h)) [%] | inhibition at 0.01 µM [1] [%] | inhibition at 0.1 µM (DNA-PK(h); compound concentration 0.1 μM) [%] | inhibition at 0.1 µM ([1]; compound concentration 0.1 μM) [%] | inhibition at 0.1 µM (DNA-PK(h); compound at 0.1 μM) [%] | inhibition at 0.1 µM ([1]; compound at 0.1 μM) [%] | SMILES |
| --- | --- | --- | --- | --- | --- | --- |
| -3 | 11 |  |  |  |  | C[C@H](Nc1ncnc2[nH]ccc(=O)c12)c1c(Cl)c2cccc(-c3ncc(F)cn3)c2c(=O)n1-c1ccccc1 [Example 53, (S)-4-((1-(4-chloro-8-(5-fluoropyrimidin-2-yl)-1-oxo-2-phenyl-1,2-dihydroisoquinolin-3-yl)ethyl)amino)pyrido[2,3-d]pyrimidin-5(8H)-one] |
| 50 | 72 | 85 | 94 |  |  | CC(Oc1cccc2c(Cl)c([C@H](C)Nc3ncnc4[nH]ccc(=O)c34)n(-c3ccccc3)c(=O)c12)c1ccncc1 (stereo partly drawn) [Example 368, 4-(((1S)-1-(4-chloro-1-oxo-2-phenyl-8-(1-(pyridin-4-yl)ethoxy)-1,2-dihydroisoquinolin-3-yl)ethyl)amino)pyrido[2,3-d]pyrimidin-5(8H)-one] |
| 13 | 27 | 63 | 70 |  |  | C[C@H](Nc1ncnc2[nH]ccc(=O)c12)c1c(Cl)c2cccc(N3CCC[C@H]3C(N)=O)c2c(=O)n1-c1ccccc1 [Example 337, (S)-1-(4-chloro-1-oxo-3-((S)-1-((5-oxo-5,8-dihydropyrido[2,3-d]pyrimidin-4-yl)amino)ethyl)-2-phenyl-1,2-dihydroisoquinolin-8-yl) pyrrolidine-2-carboxamide] |
| 18 | 46 | 56 | 78 |  |  | C[C@H](Nc1ncnc2[nH]ccc(=O)c12)c1c(Cl)c2cccc(N3CCN(c4ccccc4O)CC3)c2c(=O)n1-c1ccccc1 [Example 78, (S)-4-((1-(4-chloro-8-(4-(2-hydroxyphenyl)piperazin-1-yl)-1-oxo-2-phenyl-1,2-dihydroisoquinolin-3-yl)ethyl)amino)pyrido[2,3-d]pyrimidin-5(8H)-one] |
| 78 | 92 | 97 | 96 |  |  | C[C@H](Nc1ncnc2[nH]ccc(=O)c12)c1c(Cl)c2cccc(-c3cnc(N(C)C)nc3)c2c(=O)n1-c1ccccc1 [Example 112, (S)-4-((1-(4-chloro-8-(2-(dimethylamino)pyrimidin-5-yl)-1-oxo-2-phenyl-1,2-dihydroisoquinolin-3-yl)ethyl)amino)pyrido[2,3-d]pyrimidin-5(8H)-one] |
| 74 | 73 | 94 | 94 |  |  | Cc1c(-c2cccc3c(Cl)c([C@H](C)Nc4ncnc5[nH]ccc(=O)c45)n(-c4ccccc4)c(=O)c23)cnn1C [Example 82, (S)-4-((1-(4-chloro-8-(1,5-dimethyl-1H-pyrazol-4-yl)-1-oxo-2-phenyl-1,2-dihydroisoquinolin-3-yl)ethyl)amino)pyrido[2,3-d]pyrimidin-5(8H)-one] |
|  |  |  |  | 40 | 85 | CCOc1ncc(-c2cccc3cc([C@H](C)Nc4ncnc5[nH]ccc(=O)c45)n(-c4ccccc4)c(=O)c23)cn1 [Example 384, (S)-4-((1-(8-(2-ethoxypyrimidin-5-yl)-1-oxo-2-phenyl-1,2-dihydroisoquinolin-3-yl)ethyl)amino)pyrido[2,3-d]pyrimidin-5(8H)-one] |
| 96 | 84 | 101 | 82 |  |  | Cc1cncc(-c2cccc3c(Cl)c([C@H](C)Nc4ncnc5[nH]ccc(=O)c45)n(-c4ccccc4)c(=O)c23)c1 [Example 119, (S)-4-((1-(4-chloro-8-(5-methylpyridin-3-yl)-1-oxo-2-phenyl-1,2-dihydroisoquinolin-3-yl)ethyl)amino)pyrido[2,3-d]pyrimidin-5(8H)-one] |
| 25 | 76 | 75 | 96 |  |  | C[C@H](Nc1ncnc2[nH]ccc(=O)c12)c1c(Cl)c2cccc(C#Cc3ccc(N(C)C)cc3)c2c(=O)n1-c1ccccc1 [Example 314, (S)-4-((1-(4-chloro-8-((4-(dimethylamino)phenyl)ethynyl)-1-oxo-2-phenyl-1,2-dihydroisoquinolin-3-yl)ethyl)amino)-5-oxo-5,8-dihydropyrido[2,3-d]pyrimidin-5(8H)-one] |
| 30 | 19 | 74 | 58 |  |  | C[C@H](Nc1ncnc2[nH]ccc(=O)c12)c1c(Cl)c2cccc(NCc3cccnc3)c2c(=O)n1-c1ccccc1 [Example 324, (S)-4-((1-(4-chloro-1-oxo-2-phenyl-8-((pyridin-3-ylmethyl)amino)-1,2-dihydroisoquinolin-3-yl)ethyl)amino)pyrido[2,3-d]pyrimidin-5(8H)-one] |
| 11 | 69 | 69 | 98 |  |  | C[C@H](Nc1ncnc2[nH]ccc(=O)c12)c1c(Cl)c2cccc(N(C)C)c2c(=O)n1-c1ccccc1 [Example 249, (S)-4-((1-(4-chloro-8-(dimethylamino)-1-oxo-2-phenyl-1,2-dihydroisoquinolin-3-yl)ethyl)amino)pyrido[2,3-d]pyrimidin-5(8H)-one] |
| 82 | 97 |  |  |  |  | C[C@H](Nc1ncnc2[nH]ccc(=O)c12)c1c(Cl)c2cccc(-c3ccc(S(C)(=O)=O)nc3)c2c(=O)n1-c1ccccc1 [Example 219, (S)-4-((1-(4-chloro-8-(6-(methylsulfonyl)pyridin-3-yl)-1-oxo-2-phenyl-1,2-dihydroisoquinolin-3-yl)ethyl)amino)pyrido[2,3-d]pyrimidin-5(8H)-one] |
| 19 | 60 |  |  |  |  | C[C@H](Nc1ncnc2[nH]ccc(=O)c12)c1c(Cl)c2cccc(C=O)c2c(=O)n1-c1ccccc1 [Example 271, (S)-4-chloro-1-oxo-3-(1-((5-oxo-5,8-dihydropyrido[2,3-d]pyrimidin-4-yl)amino)ethyl)-2-phenyl-1,2-dihydroisoquinolin-8-carbaldehyde] |
|  |  |  |  | 16 | 86 | C[C@H](Nc1ncnc2[nH]ccc(=O)c12)c1c(Cl)c2cccc(S(C)(=N)=O)c2c(=O)n1-c1ccccc1 (stereo partly drawn) [Example 425, 4-(((1S)-1-(4-chloro-8-(S-methylsulfonimidoyl)-1-oxo-2-phenyl-1,2-dihydroisoquinolin-3-yl)ethyl)amino)pyrido[2,3-d]pyrimidin-5(8H)-one] |
| 86 | 40 |  |  |  |  | C[C@H](Nc1ncnc2[nH]ccc(=O)c12)c1c(Cl)c2cccc(-c3cccc(N4CCOCC4)c3)c2c(=O)n1-c1ccccc1 [Example 173, (S)-4-((1-(4-chloro-8-(3-morpholinophenyl)-1-oxo-2-phenyl-1,2-dihydroisoquinolin-3-yl)ethyl)amino)pyrido[2,3-d]pyrimidin-5(8H)-one] |
| 9 | 15 | 58 | 45 |  |  | C[C@H](Nc1ncnc2[nH]ccc(=O)c12)c1c(Cl)c2cccc(N3CC4CCCC4C3)c2c(=O)n1-c1ccccc1 (stereo partly drawn) [Example 342, 4-(((1S)-1-(4-chloro-8-(hexahydrocyclopenta[c]pyrrol-2 (1H)-yl)-1-oxo-2-phenyl-1,2-dihydroisoquinolin-3-yl)ethyl)amino)pyrido[2,3-d]pyrimidin-5(8H)-one] |
| 20 | 83 | 62 | 99 |  |  | C[C@H](Nc1ncnc2[nH]ccc(=O)c12)c1c(Cl)c2cccc(C#Cc3ccccc3)c2c(=O)n1-c1ccccc1 [Example 305, (S)-4-((1-(4-chloro-1-oxo-2-phenyl-8-(phenylethynyl)-1,2-dihydroisoquinolin-3-yl)ethyl)amino)pyrido[2,3-d]pyrimidin-5(8H)-one] |

| SMILES | inhibition at 0.01 µM (DNA-PK(h)) [%] | inhibition at 0.01 µM [1] [%] | inhibition at 0.1 µM (DNA-PK(h); compound concentration 0.1 μM) [%] | inhibition at 0.1 µM ([1]; compound concentration 0.1 μM) [%] | inhibition at 0.1 µM (DNA-PK(h); compound at 0.1 μM) [%] | inhibition at 0.1 µM ([1]; compound at 0.1 μM) [%] |
| --- | --- | --- | --- | --- | --- | --- |
| C[C@H](Nc1ncnc2[nH]ccc(=O)c12)c1c(Cl)c2cccc(-c3cnc(OC(C)(C)C)cn3)c2c(=O)n1-c1ccccc1 [Example 206, (S)-4-((1-(8-(5-(tert-butoxy)pyrazin-2-yl)-4-chloro-1-oxo-2-phenyl-1,2-dihydroisoquinolin-3-yl)ethyl)amino)pyrido[2,3-d]pyrimidin-5(8H)-one] | 29 | 45 |  |  |  |  |
